Laboratory results published in PubChem BioAssay AID1845205 (Molecular Pharmacology Branch, DTP, NCI, 2023).

Test system: MPNST multicellular tumor spheroids, viability % test/control
Assay: Anticancer human tumor MPNST cell line growth inhibition;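 further: spheroids exposed to agents for seven days after three days of growth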;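 on viability, T/C: luminescence signal used as surrogate for viable cell amount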
Settings: for IC50: curve of first compound; for viability, T/C: stronger effect = lower value; active means viability on the fitted dose curve at most 10% of control; inactive means the rest
Description: Multicellular complex tumor spheroid response to DNA repair inhibitors in combination with DNA-damaging drugs
This study explores the anticancer activities of DNA-damaging drugs and inhibitors of DNA damage repair, both as single agents and in combinations. Complex tumor spheroids comprised of malignant cells, endothelial cells and mesenchymal stem cells served as an in vitro model for human solid tumors. This model system incorporates physiologically relevant features and patient-derived or established malignant cell lines with clinically relevant genetic alterations from many tumor types. Twenty-six patient-derived or established malignant cell lines were evaluated representing sarcoma, melanoma, small cell lung cancer (SCLC), non-small cell lung cancer (NSCLC), as well as bladder, ovarian and pancreatic cancers. The concentration ranges selected for each drug and investigational agent were based upon clinically achievable concentrations if the clinical Cmax of the agent was known.
Compounds. The drugs and compounds olaparib (NSC753686), talazoparib (NSC767125), berzosertib (NSC777718), elimusertib (NSC800525), nedisertib (NSC802822), VX-984 (NSC792969), AZD-1390 (NSC803789), temozolomide (NSC362856), topotecan (NSC609699), trabectedin (NSC813783), staurosporine (NSC755774), and gemcitabine (NSC613327) were obtained from the National Cancer Institute (NCI) Developmental Therapeutics Program Chemical Repository. The FDA-approved anticancer drug set is available from the Developmental Therapeutics Program at https://dtp.cancer.gov/organization/dscb/obtaining/available_plates.htm. […] The stock solutions were prepared in dimethyl sulfoxide (DMSO, Sigma-Aldrich, St. Louis, MO, cat. D2650) at 400-fold the tested concentration and stored at -70 degrees C. Prior to their use, the stock solutions were diluted in fresh medium and the final DMSO concentration in the assay was 0.25% (v/v). All drugs and investigational agents were tested over a range starting from a high concentration at or near the clinical Cmax and decreasing in half-log increments. If the clinical Cmax for an agent had not been determined, the highest concentration tested was 10 microM.
Cell Lines. The patient-derived cancer cell (PDC) lines: 156681-154-R-J1-PDC, 283228-195-R-J1-PDC, 287954-098-R-J1-PDC, 292921-168-R-J2-PDC, 349418-098-R-PDC, 425362-245-T-J1-PDC, 556581-035-R-J1-PDC, and BL0293-F563-PDC were received from the NCI Patient-Derived Models Repository (PDMR, https://pdmr.cancer.gov). The established cell lines HS-SY-2 (RRID:CVCL_8719), MPNST, and SYO-1 (RRID:CVCL_7146) were obtained from the Sloan Kettering Institute. The alveolar soft parts sarcoma cell line ASPS-1 (RRID:CVCL_S738) was established at the NCI and grown from internal seed stocks. The following established cell lines were purchased from the American Type Culture Collection (ATCC, Manassas, VA): G-401 (ATCC, cat. CRL-1441, RRID:CVCL_0270), SW982 (ATCC, cat. HTB-93, RRID:CVCL_1734), VA-ES-BJ (ATCC, cat. CRL-2138, RRID:CVCL_1785), NCI-H719 (ATCC, cat. CRL-5837, RRID:CVCL_1582), NCI-H196 (ATCC, cat. CRL-5823, RRID:CVCL_1509), NCI-H841 (ATCC, cat. CRL-5845, RRID:CVCL_1595), NCI-H1618 (ATCC, cat. CRL-5879, RRID:CVCL_1480), NCI-H1876 (ATCC, cat. CRL-5902, RRID:CVCL_1503), DMS 114 (ATCC, cat. CRL-2066; RRID:CVCL_1174), NCI-H211 (ATCC, cat. CRL-5824; RRID:CVCL_1529), and SW 1271 (ATCC, cat. CRL-2177, RRID:CVCL_1716). The small cell lung cancer cell line COR-L88 was purchased from Sigma-Aldrich (cat. 92031917-1VL, RRID:CVCL_1141). The non-small cell lung cancer cell lines NCI-H226 (RRID:CVCL_1544) and NCI-H322M (RRID:CVCL_1557) were established at the NCI and grown from internal seed stocks. Pooled donor human umbilical vein endothelial cells (HUVEC, Lonza, cat. CC-2519) and human mesenchymal stem cells (hMSC, Lonza, cat. PT-2501) were purchased from Lonza (Walkersville, MD).
Cell Culture. All cells were maintained in an incubator at 37 degrees C and 5% CO2 with 95% humidity. […]

[1] = second compound 0.003 µM, first compound 0.0316 µM
[2] = second compound 0.003 µM, first compound 0.1 µM
[3] = second compound 0.003 µM, first compound 0.316 µM
[4] = second compound 0.003 µM, first compound 1 µM
[5] = second compound 0.003 µM, first compound 3.16 µM
[6] = second compound 0.003 µM, first compound 10 µM
[7] = second compound 0.00949 µM, first compound 0.0316 µM
[8] = second compound 0.00949 µM, first compound 0.1 µM
[9] = second compound 0.00949 µM, first compound 0.316 µM
[10] = second compound 0.00949 µM, first compound 1 µM
[11] = second compound 0.00949 µM, first compound 3.16 µM
[12] = second compound 0.00949 µM, first compound 10 µM
[13] = second compound 0.03 µM, first compound 0.0316 µM
[14] = second compound 0.03 µM, first compound 0.1 µM
[15] = second compound 0.03 µM, first compound 0.316 µM
[16] = second compound 0.03 µM, first compound 1 µM
[17] = second compound 0.03 µM, first compound 3.16 µM
[18] = second compound 0.03 µM, first compound 10 µM
[19] = second compound 0.0949 µM, first compound 0.0316 µM
[20] = second compound 0.0949 µM, first compound 0.1 µM
[21] = second compound 0.0949 µM, first compound 0.316 µM
[22] = second compound 0.0949 µM, first compound 1 µM
[23] = second compound 0.0949 µM, first compound 3.16 µM
[24] = second compound 0.0949 µM, first compound 10 µM
[25] = second compound 0.3 µM, first compound 0.0316 µM
[26] = second compound 0.3 µM, first compound 0.1 µM
[27] = second compound 0.3 µM, first compound 0.316 µM
[28] = second compound 0.3 µM, first compound 1 µM
[29] = second compound 0.3 µM, first compound 3.16 µM
[30] = second compound 0.3 µM, first compound 10 µM

CC1COCCN1c1cc(-c2ccnn2C)c2ccnc(-c3ccn[nH]3)c2n1 (stereo not given) + CC[C@@]1(O)C(=O)OCc2c1cc1n(c2=O)Cc2cc3c(CN(C)C)c(O)ccc3nc2-1
inactive: viability, T/C [1] 51% | viability, T/C [2] 49.7% | viability, T/C [3] 39.3% | viability, T/C [4] 34.1% | viability, T/C [5] 25.9% | viability, T/C [6] 26.9% | viability, T/C [7] 50.3% | viability, T/C [8] 44% | viability, T/C [9] 42.2% | viability, T/C [10] 34.6% | viability, T/C [11] 26.5% | viability, T/C [12] 23.8% | viability, T/C [13] 48.7% | viability, T/C [14] 44.5% | viability, T/C [15] 48.4% | viability, T/C [16] 34.6% | viability, T/C [17] 26.1% | viability, T/C [18] 23.5% | viability, T/C [19] 45.8% | viability, T/C [20] 43.8% | viability, T/C [21] 41% | viability, T/C [22] 28.3% | viability, T/C [23] 26.9% | viability, T/C [24] 21.8% | viability, T/C [25] 41.1% | viability, T/C [26] 39.9% | viability, T/C [27] 34% | viability, T/C [28] 28.1% | viability, T/C [29] 21.2% | viability, T/C [30] 17.5%
< 31.6 nM: IC50 (second compound 0.03 µM) | IC50 (second compound 0.0949 µM) | IC50 (second compound 0.3 µM)
31.8 nM: IC50 (second compound 0.00949 µM)
56.2 nM: IC50 (second compound 0.003 µM)

COc1cc(C)[nH]c(=O)c1CN1CCc2c(Cl)cc(C(OC)C3COC3)c(Cl)c2C1=O (stereo not given) + CC[C@@]1(O)C(=O)OCc2c1cc1n(c2=O)Cc2cc3c(CN(C)C)c(O)ccc3nc2-1
> 10000 nM: IC50 (second compound 0.003 µM) | IC50 (second compound 0.00949 µM)
inactive: viability, T/C [1] 92.6% | viability, T/C [2] 95.7% | viability, T/C [3] 91.3% | viability, T/C [4] 103% | viability, T/C [5] 93.6% | viability, T/C [6] 95.5% | viability, T/C [7] 96.6% | viability, T/C [8] 88.5% | viability, T/C [9] 96.4% | viability, T/C [10] 78% | viability, T/C [11] 77.9% | viability, T/C [12] 86.3% | viability, T/C [13] 46.4% | viability, T/C [14] 49.5% | viability, T/C [15] 51.5% | viability, T/C [16] 49.2% | viability, T/C [17] 54.2% | viability, T/C [18] 51.6% | viability, T/C [19] 48.5% | viability, T/C [20] 41.7% | viability, T/C [21] 43.7% | viability, T/C [22] 47.7% | viability, T/C [23] 45.7% | viability, T/C [24] 46.7% | viability, T/C [25] 37% | viability, T/C [26] 39.2% | viability, T/C [27] 39.2% | viability, T/C [28] 37.3% | viability, T/C [29] 37.7% | viability, T/C [30] 39.5%
< 31.6 nM: IC50 (second compound 0.03 µM) | IC50 (second compound 0.0949 µM) | IC50 (second compound 0.3 µM)

Cc1cc(C)c(CNC(=O)c2cc(-c3ccc(CN4CCOCC4)cc3)cc3c2cnn3C2CCCC2)c(=O)[nH]1 + CC[C@@]1(O)C(=O)OCc2c1cc1n(c2=O)Cc2cc3c(CN(C)C)c(O)ccc3nc2-1
inactive: viability, T/C [1] 86% | viability, T/C [2] 79.4% | viability, T/C [3] 88.8% | viability, T/C [4] 83.2% | viability, T/C [5] 93.3% | viability, T/C [6] 87.5% | viability, T/C [7] 80.3% | viability, T/C [8] 70% | viability, T/C [9] 91% | viability, T/C [10] 71.4% | viability, T/C [11] 76.1% | viability, T/C [12] 78.9% | viability, T/C [13] 55.4% | viability, T/C [14] 54.6% | viability, T/C [15] 50% | viability, T/C [16] 53% | viability, T/C [17] 58.2% | viability, T/C [18] 68.2% | viability, T/C [19] 51.8% | viability, T/C [20] 52.1% | viability, T/C [21] 51.1% | viability, T/C [22] 52.4% | viability, T/C [23] 50.3% | viability, T/C [24] 58.3% | viability, T/C [25] 41.7% | viability, T/C [26] 41% | viability, T/C [27] 43.2% | viability, T/C [28] 37.8% | viability, T/C [29] 42.6% | viability, T/C [30] 45.4%
< 31.6 nM: IC50 (second compound 0.3 µM)
> 10000 nM: IC50 (second compound 0.003 µM) | IC50 (second compound 0.00949 µM) | IC50 (second compound 0.03 µM) | IC50 (second compound 0.0949 µM)

[2H]c1nc(C)nc([2H])c1-c1cc(NC[C@@H](C)c2cccc3c(C(=O)NC)ccnc23)ncn1 + CC[C@@]1(O)C(=O)OCc2c1cc1n(c2=O)Cc2cc3c(CN(C)C)c(O)ccc3nc2-1
inactive: viability, T/C [1] 96.5% | viability, T/C [2] 107% | viability, T/C [3] 93.5% | viability, T/C [4] 99.7% | viability, T/C [5] 92.4% | viability, T/C [6] 67.8% | viability, T/C [7] 74.5% | viability, T/C [8] 58.1% | viability, T/C [9] 77.8% | viability, T/C [10] 74.2% | viability, T/C [11] 49.4% | viability, T/C [12] 59.9% | viability, T/C [13] 39.3% | viability, T/C [14] 39.7% | viability, T/C [15] 37.6% | viability, T/C [16] 36.4% | viability, T/C [17] 37.8% | viability, T/C [18] 36.2% | viability, T/C [19] 38.5% | viability, T/C [20] 37.5% | viability, T/C [21] 39.4% | viability, T/C [22] 35.4% | viability, T/C [23] 34% | viability, T/C [24] 35.1% | viability, T/C [25] 33.1% | viability, T/C [26] 31% | viability, T/C [27] 29.9% | viability, T/C [28] 30.8% | viability, T/C [29] 28.1% | viability, T/C [30] 25.9%
> 10000 nM: IC50 (second compound 0.003 µM) | IC50 (second compound 0.00949 µM)
< 31.6 nM: IC50 (second compound 0.03 µM) | IC50 (second compound 0.0949 µM) | IC50 (second compound 0.3 µM)
